“Also recorded” adds a separate entry of the source. Where a name gives a salt, the structure may show the parent alone.
Legend:
mice [1] = assay: Motility reduced by hypoxic aggression; type: in vivo, mouse; details: i.p.
Protocol: Half an hour after they have received CRL 41 153, the mice (10 per dose, 20 control animals) are subjected to acute hypobaric anoxia [pressure reduction of 600 mm Hg (i.e. about 8×10^4 Pa) in 90 seconds; release of vacuum in 45 seconds] and are then placed in an actimeter, where their motility is recorded for 10 minutes.

mice [2] = assay: Interaction with reserpine; type: in vivo, mouse; details: i.p.
Protocol: Four hours after the intraperitoneal injection of 2.5 mg/kg of reserpine, groups of 6 mice receive CRL 41 153.

mice [3] = assay: Spontaneous motility; type: in vivo, mouse; details: i.p.
Protocol: 0.5 hour after they have received CRL 41 153, the mice (6 per dose, 12 control animals) are placed in an actimeter, where their motility is recorded for 30 minutes.

CNS [4] = assay: Neuropsychopharmacological profile as a whole; type: in vivo, mice and rats; details: for Peripheral α-adrenergic signs (mydriasis, salivation, lacrimation, exophthalmos): species and dose not stated
Protocol: (§1) In the neuropsychopharmacological study which follows, a solution of CRL 41 153 in distilled water (pH 1.5) was administered intraperitoneally in a volume of 20 ml/kg to male mice and 5 ml/kg to male rats.

mice [5] = assay: Particular toxicity in grouped mice; details: mice
Protocol: The number of dead animals is noted after 1 hour, 2 hours, 3 hours, 4 hours and 24 hours.

mice [6] = assay: Behavioral despair; type: in vivo, mouse; details: forcibly immersed mice, i.p.
Text: Half an hour after they have received CRL 41 153, groups of 6 mice are placed in a beaker filled with water to a height of 6 cm. The total period of immobility between the 2nd and 6th minutes following immersion is noted.

rats [7] = assay: Overall behavior and reactivities in rats; type: in vivo, rat; details: dose not stated
Protocol: as §1
(§2) Groups of three animals are observed before and then 0.25 hour, 0.50 hour, 1 hour, 2 hours, 3 hours and 24 hours after the administration of CRL 41 153.

CNS [8] = assay: Complementary tests by oral (gastric) administration; type: in vivo; details: gastric vs i.p.
mice [9] = assay: Overall behavior and reactivities in mice; type: in vivo, mouse; details: dose not stated
Protocol: as §1, §2

mice [10] = assay: Interaction with barbital; type: in vivo, mouse; details: i.p., barbital 220 mg/kg
Protocol: Half an hour after the administration of CRL 41 153, groups of 10 mice receive an intraperitoneal injection of barbital (220 mg/kg).

mice [11] = assay: Four plate test, traction and electric shock; type: in vivo, mouse; details: i.p.
Protocol: The test is performed on groups of 10 mice 30 minutes after the administration of CRL 41 153.

[12] = test system: gravid White New Zealand female rabbits; assay: Teratogenicity in gravid White New Zealand rabbits; type: in vivo, rabbit; details: day 5 to day 18 of gestation; for Affected foetuses, %: normal limit 1.5%
Outline: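 Fetuses harvested by cesarean on gestation day 29 were scored for number and for any malformation (limb blockade, anury, tail or skull defects, exencephaly).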

mice [13] = assay: Interaction with apomorphine in mice; type: in vivo, mouse; details: i.p.
Protocol: Groups of 6 mice receive CRL 41 153 0.5 hour before the subcutaneous injection of 1 or 16 mg/kg of apomorphine.

[14] = test system: nigrostriatal dopaminergic system; assay: Interaction with alpha-methyltyrosine on stereotypies (difference from amphetamine); details: α-methyltyrosine (catecholamine synthesis blocked)
mice [15] = assay: Interaction with oxotremorine; type: in vivo, mouse; details: i.p.
Protocol: CRL 41 153 is administered to groups of 6 mice 0.5 hour before the intraperitoneal injection of 0.5 mg/kg of oxotremorine.

rats [16] = assay: Interaction with amphetamine; type: in vivo, rat; details: i.p.
Protocol: Amphetamine (2 mg/kg) is injected intraperitoneally into groups of 6 rats 30 minutes after the administration of CRL 41 153. […] 4 mg/kg and 16 mg/kg, CRL 41 153 potentiates the intensity and duration of the stereotypies induced by amphetamine.

mice [17] = assay: Motility reduced by habituation to the enclosure; type: in vivo, mouse; details: i.p.
Protocol: After they have stayed In the actimeters for 18 hours, (he mice (6 per dose, 12 control animals) receive CRL 41 153. They are immediately returned to their respective enclosures and, half an hour later, their motility is recorded for 30 minutes.

rats [18] = assay: Interaction with apomorphine in rats; type: in vivo, rat; details: i.p.
Protocol: CRL 41 153 is administered to groups of 6 rats 0.5 hour before the subcutaneous injection of 0.5 mg/kg of apomorphine.

dogs = assay: Cardiovascular study in anesthetized dogs; type: in vivo, dog
Outline: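 Measurements: blood pressure, heart rate, femoral and vertebral arterial flow, rectal temperature, skin colour, and for CRL 41 194 bile colour via bile-duct catheter. Doses rose stepwise 0.1–10 mg/kg intraduodenally in solution under nembutal anaesthesia; two dogs got CRL 41 194, four CRL 41 221.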

[19] = Acute toxicity by intraperitoneal administration; type: in vivo, mouse; details: mouse, in vivo, ip; male mice
Protocol: as §1

humans = assay: Clinical study: vasodilator; type: in vivo, human
Text: In the treatment of diseases associated with the blood circulation through the vessels.

[20] = pH of solutions in distilled water; type: physicochemical
Protocol: The neuropsychopharmacological study was undertaken according to the procedures described above for CRL 41 153, CRL 41 213 being adminstered intraperitoneally, in solution in distilled water, in a volume of 20 ml/kg to male mice and a volume of 5 ml/kg to male rats, and the pH of the injected solution varying with the concentration of CRL 41 213 according to the data given in Table II below.

[21] = anesthetized dogs, intraduodenal

In the case of `CC(NC(C)(C)C)C(=O)c1ccc(N)cc1` (centres unmarked) [CRL 41 178], the “Motor recovery of mice after hypobaric hypoxia” value (mice [1]) is reported as “improvement in the motor recovery of mice whose activity has been depressed following hypobaric hypoxia”, the “Effect on hypothermia induced by reserpine” value (mice [2]) is reported as “antagonism of the hypothermia” and the “Effect on ptosis induced by reserpine” value (mice [2]) is reported as “slight antagonism of the ptosis induced by reserpine”. For the same compound, the Spontaneous motor activity (mice [3]) was “increase in the motor activity”, the “Anticonvulsant effects (overall)” value (CNS [4]; conclusion of the tests) was “anticonvulsant effects” and the “Antidepressant effects (overall)” value (CNS [4]; conclusion of the tests) was “more modest antidepressant effects; also recorded: antidepressant component”. The “Stimulant effects (overall)” value (CNS [4]; conclusion of the tests) was “distinct stimulant effects; also recorded: behaves as a stimulant as from the weakest doses”, the “α-adrenergic stimulant effects (overall)” value (CNS [4]; conclusion of the tests) was “moderate α-adrenergic stimulant effects” and the “Peripheral α-adrenergic signs (mydriasis, salivation, lacrimation, exophthalmos)” value (CNS [4]) was “mydriasis (with neither piloerection nor salivation)”. For the same compound, the “Particular toxicity to grouped mice” value (mice [5]) was “existence of a particular toxicity to grouped mice”, the “Period of immobility due to despair” value (mice [6]) was “reduction in the period of immobility” and the “Overall behavior: observed effects (summary)” value (shortened to “Overall behavior”) (rats [7]) was “excitation and hyperreactivity in mice and rats”. For the same compound, the “Stereotype movements (summary)” value (rats [7]) was “presence of stereotype movements”, the “Action on gastric (oral) administration compared with intraperitoneal” value (CNS [8]) was “same types of action as after intraperitoneal administration; also recorded: the antidepressant effects are apparently developed better by oral administration than by intraperitoneal administration” and the “Overall behavior” value (mice [9]) was “excitation and hyperreactivity in mice and rats”. The “Duration of the sleep induced by barbital” value (mice [10]) was “antagonism of the sleep induced by barbital”, the “Effect on convulsant effects of electric shock” value (mice [11]) was “at high doses, antagonism of the convulsant effects of electric shock” and the “Affected foetuses, number” value ([12]; 5 mg/kg daily) was 1. The “Total foetuses (live)” value ([12]; 5 mg/kg daily) was 90, the “Affected foetuses, %” value ([12]; 5 mg/kg daily) was 1.11% and the “Affected foetuses, number” value ([12]; 10 mg/kg daily) was 1. The “Total foetuses (live)” value ([12]; 10 mg/kg daily) was 83, the “Affected foetuses, %” value ([12]; 10 mg/kg daily) was 1.20% and the “Affected foetuses, number” value ([12]; 50 mg/kg daily) was 1. For the same compound, the “Total foetuses (live)” value ([12]; 50 mg/kg daily) was 92, the “Affected foetuses, %” value ([12]; 50 mg/kg daily) was 1.10% and the “Effect on hypothermia induced by apomorphine” value (mice [13]) was “antagonism of the hypothermia”. For the same compound, the “Effect of alpha-methyltyrosine on the stereotypies induced by the substance” value [14] was “differs from amphetamine in the mechanism of the effects which cause stereotypies”, the “Effect on hypothermic action of oxotremorine” value (mice [15]) was “antagonism of the hypothermia” and the “Effect on stereotypies induced by amphetamine” value (rats [16]) was “potentiation of the effects of apomorphine and amphetamine in rats”. For the same compound, the “Motor activity of mice accustomed to their enclosure” value (mice [17]) was “resumption in the activity of mice accustomed to their enclosure” and the “Effect on stereotypies induced by apomorphine” value (rats [18]) was “potentiation of the effects of apomorphine and amphetamine in rats”.
With `CC(C(=O)c1ccc(N)cc1)N1CCCC1` (centres unmarked) [CRL 41 222, 1-(4-aminophenyl)-2-pyrrolidinopropanone dihydrochloride] the “Motor recovery of mice after hypobaric hypoxia” value (mice [1]) was “improvement in the motor recovery”, the “Effect on hypothermia induced by reserpine” value (mice [2]) was “antagonism of the hypothermia” and the “Effect on ptosis induced by reserpine” value (mice [2]) was “antagonism of the ptosis induced by reserpine”. The Spontaneous motor activity (mice [3]) was “an increase in the motor activity”, the “Vasodilator (conclusion)” value (dogs) was “vasodiating properties” and the “Effect of propanolol or atenolol on the action of the product” value (dogs; anesthetized dogs) was “acts by stimulating the β-cardiac and vascular receptors”. The “Effect on hypertension induced by norepinephrine” value (dogs; anesthetized dogs) was “moderately increases the hypertension induced by norepinephrine”, the “Effects of isoprenaline (not further specified)” value (dogs; anesthetized dogs) was “without modifying the effects of isoprenaline” and the Rectal temperature (dogs; anesthetized dogs) was “The rectal temperature and skin temperature rise”. The Skin temperature (dogs; anesthetized dogs) was “The rectal temperature and skin temperature rise”, the Blood pressure (dogs; [21]) was “A hypotensive action appears at 20 mg/kg as a drop in the diastolic blood pressure” and the Femoral flow (dogs; [21]) was “substantial and regular increase in the femoral and vertebral flows”. For the same compound, the Heart rate (dogs; [21]) was “accompanied by tachycardia”, the Respiration (dogs; [21]) was “Respiratory stimulation is observed in all the animals” and the Vertebral flow (dogs; [21]) was “substantial and regular increase in the femoral and vertebral flows”. The “Antidepressant effects (overall)” value (CNS [4]; conclusion of the tests) was “possessing antidepressant, stimulant and arousing properties”, the “Stimulant effects (overall)” value (CNS [4]; conclusion of the tests) was “possessing antidepressant, stimulant and arousing properties” and the “α-adrenergic stimulant effects (overall)” value (CNS [4]; conclusion of the tests) was “peripheral α-adrenergic stimulant effects”. For the same compound, the “Peripheral α-adrenergic signs (mydriasis, salivation, lacrimation, exophthalmos)” value (CNS [4]; dihydrochloride) was “mydriasis; also recorded: salivation and lacrimation”, the LD50 [19] was 87 mg/kg and the “Period of immobility due to despair” value (mice [6]) was “a reduction in the period of immobility”. The “Overall behavior” value (rats [7]) was “excitation in mice and rats”, the “Stereotype movements (summary)” value (rats [7]) was “presence of stereotype movements” and the “Overall behavior” value (mice [9]) was “excitation in mice and rats”. The “Stereotype movements (summary)” value (mice [9]) was “presence of stereotype movements”, the “Duration of the sleep induced by barbital” value (mice [10]) was “distinct antagonism of the sleep induced by barbital” and the “Affected foetuses, number” value ([12]; 5 mg/kg daily) was 1. The “Total foetuses (live)” value ([12]; 5 mg/kg daily) was 85, the “Affected foetuses, %” value ([12]; 5 mg/kg daily) was 1.29% and the “Affected foetuses, number” value ([12]; 10 mg/kg daily) was 0. The “Total foetuses (live)” value ([12]; 10 mg/kg daily) was 92, the “Affected foetuses, %” value ([12]; 10 mg/kg daily) was 0% and the “Effect on hypothermia induced by apomorphine” value (mice [13]) was “antagonism of the hypothermia”. For the same compound, the “Effect on hypothermic action of oxotremorine” value (mice [15]) was “antagonism of the hypothermia”, the “Effect on trembling induced by oxotremorine” value (mice [15]) was “antagonism of the trembling induced by oxotremorine” and the “Vasodilator in human clinical use” value (humans) was “good peripheral vasodilator at a daily dose of 2×10 mg”. For the same compound, the pH ([20]; 0.1 g/liter in distilled water) was 5, the pH ([20]; 0.2 g/liter in distilled water) was 4.5 and the pH ([20]; 0.4 g/liter in distilled water) was 4.0. It also gave a pH ([20]; 0.8 g/liter in distilled water) of 3.5, a pH ([20]; 1.6 g/liter in distilled water) of 3.0 and a pH ([20]; 3.2 g/liter in distilled water) of 2.5. It also gave a pH ([20]; 6.4 g/liter in distilled water) of 2.0, a pH ([20]; 12.8 g/liter in distilled water) of 1.5 and a pH ([20]; ≤0.05 g/liter in distilled water) of 5.5. For the same compound, the “Effect on stereotypies induced by amphetamine” value (rats [16]) was “potentiation of the stereotypies”, the “Motor activity of mice accustomed to their enclosure” value (mice [17]) was “resumption in the motor activity of mice accustomed to their enclosure” and the “Effect on stereotypies induced by apomorphine” value (rats [18]) was “potentiation of the stereotypies”.
